Reference: patent publication US11932850B2, “Cancer chemoprevention with STAT3 blockers” (Jill M. Siegfried, LLC, priority 2018, dated 2024)
“Also recorded” adds a separate entry of the source.

Key:
[1] = test system: c-Myc in 201T-derived tumors; assay: c-Myc expression in 201T xenograft tumors (Western blot, RT-qPCR); type: in vivo, nude mice
[2] = Toxicology studies in mice; type: in vivo; settings: repeated doses up to 100 mg/kg
From the text: The novel mechanism of action combined with the stability of the circularized STAT3 decoy and its low toxicity are favorable features for clinical application. In all experiments with the STAT3 decoy, activity is compared to a mutant version with a T-A base pair replacing a G-C base pair at position 9, differing by the two nucleotides in the base pair.

[3] = test system: M1 macrophages, M2 macrophages, MDSCs; assay: Flow cytometry of immune cells isolated from lungs of NNK mice; type: in vivo
From the text: STAT3 also plays a central role in immune evasion. STAT3 specifically orchestrates immunosuppression by promoting M2 macrophage and myeloid-derived suppressor cells (MDSCs) activity while suppressing M1 macrophage function [Su et al. Int. J. Mol. Science 19: pll:E1803, 2018]. Thus STAT3 inhibition by CS3D should favor an antitumor immune response by enhancing M1 macrophage activity.
Lungs from mice were digested with RPMI media containing collagenase and DNase to obtained single cell suspension. The cells were counted and 1×10^6 cells were staining with fluorescent labeled CD45, CD11b, MHC II, Ly6C and F4/80. The labeled cells were gated and data acquired on LSR fortessa (BD Biosciences) and further analysed by Flowjo.

[4] = NNK 4 weeks then 1 week of drug administration

CS3D (DNA GATTTACGGGAAATGCSCATTTCCC; cyclic decoy with two hexaethylene glycol linkers, further chemistry not given here)
mean decrease of c-Myc protein ([1]; 201T xenografts, CS3D vs CS3M): 70%
reduction of c-Myc gene expression (mRNA) relative to GAPDH ([1]; tumor lysates of 201T and H1975 xenografts (FIG. 7E), compared to CS3M): 60-70%
toxicology: body weight, organ histology, clinical chemistry [2]: no significant effects on body weight, organ histology, or clinical chemistry; also recorded: no appreciable changes in blood chemistry, weight or organ structure
M2 macrophages [3, 4]: 5.53%
MDSCs [3, 4]: 14.2%
proportion of M1 macrophages in the lung TME ([3]; NNK 4 weeks then 1 week of drug, vs CS3M): increasing
